Assay results published in US20220370453A1 (Storm Therapeutics Ltd, priority 2019, published 2022).

Columns and labels:
BCDIN3D [1] = molecular target: T1, BCDIN3D (Homo sapiens, UniProt Q7Z5W3); experiment: BCDIN3D IC50 RFMS (RapidFire) assay with mini-helix; format: biochemical; conditions: 25 nM enzyme
T1 sequence (Q7Z5W3 1-292): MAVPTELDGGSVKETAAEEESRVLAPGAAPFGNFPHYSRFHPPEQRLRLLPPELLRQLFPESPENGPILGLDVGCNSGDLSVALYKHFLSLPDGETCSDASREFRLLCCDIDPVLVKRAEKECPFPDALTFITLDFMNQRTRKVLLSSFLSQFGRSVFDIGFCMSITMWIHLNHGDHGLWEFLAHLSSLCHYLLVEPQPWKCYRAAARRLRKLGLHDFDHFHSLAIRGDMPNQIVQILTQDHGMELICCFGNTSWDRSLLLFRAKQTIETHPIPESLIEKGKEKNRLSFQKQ
In short: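 25 nM enzyme preincubated 10 min at room temperature with compound (1% DMSO) in 25 mM Tris pH 8.0, 10 mM DTT, 1 mM EDTA, 0.03% BSA. Reaction started with 0.2 μM mini-helix plus 6 μM SAM, run 1 h at 37 °C, quenched with TCA; SAH product quantified by RapidFire MS against isotopic SAH standards.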

BCDIN3D [2] = molecular target: T1, BCDIN3D; experiment: BCDIN3D InCellPulse thermal stability assay in transfected A549 cells; format: cell-based; conditions: heat shock 58° C. 15 min
Method: BCDIN3D InCellPulse™ Assay
The thermal stability assay was performed with lipofectamine 3000 transiently transfected A549 using the plasmid pICP-ePL-BCDIN3 Da. This plasmid encodes for BCDIN3D N-terminally fused to a Prolabel (ePL), complementing a split β-Galactosidase Enzyme System InCELL Pulse Technology (InCELL Hunter Detection Kit, DiscoverX/Eurofins, cat: 96-0079L). 20 μl A549 cells (1500 cell/well) were added with a multidrop device to compounds to a final DMSO concentration of 0.6% in 384-well polypropylene plate format in IMDM medium and pre-incubated with the compounds for 1 h at 37° C. and 5% CO2. Subsequently, a heat shock was applied to the entire sealed plate in a 58° C. water bath for 15 min. The plates were cooled to RT, spun down and 25 μl/well of EA Detection Solution at 3.3× (InCELL Hunter Detection Kit) was added per well. 21 μl of the mixture was added to a black 384-well measurement plate (Corning, PS, black, Flat Bottom, #3575), mix for 30 minutes on a plate shaker at RT. Finally, the luminescence was measured with a Perkin Elmer EnVision with 0.2 s measurement time in luminescence mode.

[3] = mini-helix substrate 0.2 μM, SAM 6 μM
[4] = transiently transfected A549 cells
[5] = mini-helix 0.2 μM and SAM 6 μM as substrates, 1 hr at 37° C.
[6] = A549 cells transiently transfected with ePL-BCDIN3D, 1 h pre-incubation

Row | Compound | IC50 (BCDIN3D [1]; [3]) [nM] | IC50 (BCDIN3D [2]; [4]) [nM] | IC50 (BCDIN3D [1]; [5]) [nM] | IC50 (BCDIN3D [2]; [6]) [nM]
1 | Cn1ncc2c(Nc3ccc(C(F)(F)F)nc3)nc(NCC(C)(N)c3ccccc3)nc21 (stereo not shown) [Compound 4.26, 6-N-(2-amino-2-phenylpropyl)-1-methyl-4-N-[6-(trifluoromethyl)pyridin-3-yl]pyrazolo[3,4-d]pyrimidine-4,6-diamine] | 21.7 | 384 | – | –
2 | Cn1ncc2c(NC3(C)CCCCC3)nc(NC[C@H](N)c3ccccc3)nc21 [Compound 4.111, N6-[(2R)-2-amino-2-phenyl-ethyl]-1-methyl-N4-(1-methylcyclohexyl)pyrazolo[3,4-d]pyrimidine-4,6-diamine] | 369 | 292 | – | –
3 | Cn1ncc2c(NC(C)(C)C(F)(F)F)nc(NC[C@H](N)c3cccc(Br)c3)nc21 [Compound 5.16, N6-[(2R)-2-amino-2-(3-bromophenyl)ethyl]-1-methyl-N4-(2,2,2-trifluoro-1,1-dimethyl-ethyl)pyrazolo[3,4-d]pyrimidine-4,6-diamine] | 41.7 | 38.5 | – | –
4 | Cn1ncc2c(Nc3ccc(C(F)(F)F)cc3)nc(NCC3(N)COC3)nc21 [Compound 3.28, 6-N-[(3-Aminooxetan-3-yl)methyl]-1-methyl-4-N-[4-(trifluoromethyl)phenyl]pyrazolo[3,4-d]pyrimidine-4,6-diamine] | 383 | 4670 | – | –
5 | Cc1nn(C)c2nc(NCC(C)(C)N)cc(NCc3cccc(C(F)(F)F)c3)c12 [Compound 1.38, 6-N-(2-Amino-2-methylpropyl)-1,3-dimethyl-4-N-[[3-(trifluoromethyl)phenyl]methyl]pyrazolo[3,4-b]pyridine-4,6-diamine] | – | – | 8630 | 4000
6 | Cc1ccc(CNc2nc(NC3CCCCC3N)nc3c2cnn3C)cc1Cl (stereo not shown) [Compound 3.30, N6-(2-aminocyclohexyl)-N4-[(3-chloro-4-methylphenyl)methyl]-1-methyl-1H-pyrazolo[3,4-d]pyrimidine-4,6-diamine] | 1140 | 1410 | – | –
7 | Cn1ncc2c(NC3CC4(C3)CC(F)(F)C4)nc(NC[C@H](N)c3ccccc3)nc21 [Compound 4.94, N6-[(2R)-2-amino-2-phenyl-ethyl]-N4-(2,2-difluorospiro[3.3]heptan-6-yl)-1-methyl-pyrazolo[3,4-d]pyrimidine-4,6-diamine] | 6.1 | 47 | – | –
8 | Cn1ncc2c(NC(C)(C)C)nc(NC[C@H](N)c3ccc(C#N)cc3)nc21 [Compound 5.28, 4-[(1R)-1-amino-2-{[4-(tert-butylamino)-1-methyl-1H-pyrazolo[3,4-d]pyrimidin-6-yl]amino}ethyl]benzonitrile] | 90 | 370 | – | –
9 | COc1ccc(CNc2nc(NCC(N)c3ccccc3)nc3c2cnn3C)c(OC)c1 (stereo not shown) [Compound 4.09, N6-(2-amino-2-phenyl-ethyl)-N4-[(2,4-dimethoxyphenyl)methyl]-1-methyl-pyrazolo[3,4-d]pyrimidine-4,6-diamine] | 178 | 505 | – | –
10 | Cn1ncc2c(Nc3ccc(C(F)(F)F)cc3)nc(NC[C@@H](N)c3ccccc3)nc21 [Compound 4.23, 6-N-[(2S)-2-amino-2-phenylethyl]-1-methyl-4-N-[4-(trifluoromethyl)phenyl]pyrazolo[3,4-d]pyrimidine-4,6-diamine] | 1520 | 202 | – | –
11 | COc1cccc(-c2cccc(Nc3nc(NCCN)nc4c3cnn4C)c2)c1 [Compound 1.11, N6-(2-aminoethyl)-N4-{3′-methoxy-[1,1′-biphenyl]-3-yl}-1-methyl-1H-pyrazolo[3,4-d]pyrimidine-4,6-diamine] | – | – | 762 | 1060
12 | Cn1ncc2c(NCC3CCC3F)nc(NC[C@H](N)c3ccccc3)nc21 (stereo partly drawn) [Compound 4.112, N6-[(2R)-2-amino-2-phenyl-ethyl]-N4-[(2-fluorocyclobutyl)methyl]-1-methyl-pyrazolo[3,4-d]pyrimidine-4,6-diamine] | 164 | 439 | – | –
13 | Cn1ncc2c(Nc3ccc(C(F)(F)F)nc3)nc(NCC3(N)CC3)nc21 [Compound 2.45, 6-N-[(1-aminocyclopropyl)methyl]-1-methyl-4-N-[6-(trifluoromethyl)pyridin-3-yl]pyrazolo[3,4-d]pyrimidine-4,6-diamine] | 424 | 2470 | – | –
14 | Cc1ccc(CNc2nc(NCC(N)c3cccnc3)nc3c2cnn3C)cc1Cl (stereo not shown) [Compound 5.07, 6-N-(2-amino-2-pyridin-3-ylethyl)-4-N-[(3-chloro-4-methylphenyl)methyl]-1-methylpyrazolo[3,4-d]pyrimidine-4,6-diamine] | 135 | 882 | – | –
15 | Cn1ncc2c(Nc3ccc(C(F)(F)F)cc3)nc(NCC3(N)CCOC3)nc21 (stereo not shown) [Compound 3.14, 6-N-[(3-aminooxolan-3-yl)methyl]-1-methyl-4-N-[4-(trifluoromethyl)phenyl]pyrazolo[3,4-d]pyrimidine-4,6-diamine] | 252 | 2410 | – | –
16 | Cn1ncc2c(Nc3ccc(OC(F)F)cc3)nc(NCC3(N)CC3)nc21 [Compound 2.34, 6-N-[(1-aminocyclopropyl)methyl]-4-N-[4-(difluoromethoxy)phenyl]-1-methylpyrazolo[3,4-d]pyrimidine-4,6-diamine] | 201 | 1420 | – | –
17 | [2H]C([2H])([2H])n1ncc2c(NC(C)(C)C)nc(NC[C@H](N)c3ccccc3)nc21 [Compound 4.55, N6-[(2R)-2-amino-2-phenyl-ethyl]-N4-tert-butyl-1-(trideuteriomethyl)pyrazolo[3,4-d]pyrimidine-4,6-diamine] | 133 | 152 | – | –
18 | Cn1ncc2c(Nc3ccc(C(F)(F)F)cc3)nc(NCC3(N)CCCC3)nc21 [Compound 3.18, 6-N-[(1-aminocyclopentyl)methyl]-1-methyl-4-N-[4-(trifluoromethyl)phenyl]pyrazolo[3,4-d]pyrimidine-4,6-diamine] | 88 | 335 | – | –
19 | [2H]C([2H])([2H])n1ncc2c(Nc3ccc(C(F)(F)F)cc3)nc(NC[C@H](N)c3ccccc3)nc21 [Compound 4.24, N6-[(2R)-2-amino-2-phenyl-ethyl]-1-(trideuteriomethyl)-N4-[4-(trifluoromethyl)phenyl]pyrazolo[3,4-d]pyrimidine-4,6-diamine] | 13.9 | 14.4 | – | –
20 | Cn1ncc2c(Nc3ccc(C(F)(F)F)cc3)cc(NCC3(N)CC3)nc21 [Compound 2.52, N6-[(1-Aminocyclopropyl)methyl]-1-methyl-N4-[4-(trifluoromethyl)phenyl]pyrazolo[3,4-b]pyridine-4,6-diamine] | 6900 | 8890 | – | –
21 | COC[C@@H](C)Nc1nc(NC[C@H](N)c2ccccc2)nc2c1cnn2C [Compound 4.117, N6-[(2R)-2-amino-2-phenyl-ethyl]-N4-[(1R)-2-methoxy-1-methyl-ethyl]-1-methyl-pyrazolo[3,4-d]pyrimidine-4,6-diamine] | 783 | 608 | – | –
22 | COc1ccc(C(C)Nc2nc(NCCN)nc3c2cnn3C)cc1Cl (stereo not shown) [Compound 1.06, N6-(2-aminoethyl)-N4-[1-(3-chloro-4-methoxyphenyl)ethyl]-1-methyl-1H-pyrazolo[3,4-d]pyrimidine-4,6-diamine] | – | – | 1680 | 2930
23 | Cn1ncc2c(NCc3ccc(F)c(Cl)c3)nc(NCC3(N)CC3)nc21 [Compound 2.02, 6-N-[(1-Aminocyclopropyl)methyl]-4-N-[(3-chloro-4-fluorophenyl)methyl]-1-methylpyrazolo[3,4-d]pyrimidine-4,6-diamine] | 505 | 1910 | – | –
24 | Cn1ncc2c(Nc3cnc(C(F)(F)F)nc3)nc(NCC(C)(N)c3ccccc3)nc21 (stereo not shown) [Compound 4.11, N6-(2-amino-2-phenyl-propyl)-1-methyl-N4-[2-(trifluoromethyl)pyrimidin-5-yl]pyrazolo[3,4-d]pyrimidine-4,6-diamine] | 168 | 2160 | – | –
25 | Cn1ncc2c(NC3CC4(CC(O)C4)C3)nc(NC[C@H](N)c3ccccc3)nc21 (stereo partly drawn) [Compound 4.124, 6-[(6-{[(2R)-2-amino-2-phenylethyl]amino}-1-methyl-1H-pyrazolo[3,4-d]pyrimidin-4-yl)amino]spiro[3.3]heptan-2-ol] | 290 | 570 | – | –
26 | Cn1ncc2c(NC(C)(C)C)nc(NCC(N)c3ccccn3)nc21 (stereo not shown) [Compound 5.06, N6-[2-amino-2-(2-pyridyl)ethyl]-N4-tert-butyl-1-methyl-pyrazolo[3,4-d]pyrimidine-4,6-diamine] | 1100 | 1110 | – | –
